Measurements published in patent US7446195B2, “High affinity thiophene-based and furan-based kinase ligands” (Schering Corporation, priority 2005, dated 2008).

biological target: CDK-2 (Homo sapiens, UniProt P24941); experiment: CDK-2 inhibition (Table 1; fluorescence polarization displacement assay); format: binding; settings: inhibitory effectiveness toward CDK-2
Procedure, shortened: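 Ki was measured by fluorescence polarization displacement of 50 nM BMS-Alexa Fluor647 tracer from CDK-2 ([…]) or CDK-2/cyclin A ([…]). Buffer was 10 mM Hepes pH 7.5, 150 mM NaCl, 1 mM DTT, with 15 min incubation at room temperature and read at ex 580/em 680 nm. Ki came from nonlinear regression of the displacement curves.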

| SMILES | IC50 [µM] |
| --- | --- |
| COc1ccc(NC(=O)c2ccc(C(=O)Nc3ccc(-c4c(C)noc4C)cc3)s2)c(C)c1 [Compound 168] | ≥ 40 |
| COc1ccc(NC(=O)c2ccc(C(=O)Nc3ccc4ncccc4c3)s2)c(C)c1 [Compound 169] | ≥ 40 |
| COc1ccc(NC(=O)c2ccc(C(=O)Nc3ccc4nc(C)ccc4c3)s2)c(C)c1 [Compound 170] | ≥ 40 |
| COc1ccc(NC(=O)c2ccc(C(=O)Nc3ccc4c(cnn4C)c3)s2)c(C)c1 [Compound 171] | ≥ 40 |
| COc1ccc(NC(=O)c2ccc(C(=O)Nc3ccc4nccnc4c3)s2)c(C)c1 [Compound 172] | ≥ 40 |
| COc1ccc(NC(=O)c2ccc(C(=O)Nc3ccc4scnc4c3)s2)c(C)c1 [Compound 173] | ≥ 40 |
| COc1ccc(NC(=O)c2ccc(C(=O)Nc3ccc4sc(SC)nc4c3)s2)c(C)c1 [Compound 174] | ≥ 40 |
| COc1ccc(NC(=O)c2ccc(C(=O)Nc3ccc(C#N)cc3)s2)c(C)c1 [Compound 175] | ≥ 40 |
| COc1ccc(NC(=O)c2ccc(C(=O)Nc3ccc(C(N)=O)cc3)s2)c(C)c1 [Compound 176] | ≥ 40 |
| COc1ccc(NC(=O)c2ccc(C(=O)Nc3ccc(-c4nnn[nH]4)cc3)s2)c(C)c1 [Compound 178] | ≥ 40 |
| COc1ccc(NC(=O)c2ccc(C(=O)Nc3ccc(-c4ncn(C)n4)cc3)s2)c(C)c1 [Compound 179] | ≥ 40 |
| COc1ccc(C(=O)Nc2ccc(C(=O)N3CCC(Oc4cnccn4)CC3)o2)cc1 [Compound 182] | ≥ 40 |
| O=C(Nc1ccc(-n2cncn2)cc1)c1ccc(NC(=O)C2CCCCC2)o1 [Compound 187] | ≥ 40 |
| COc1ccc(C(=O)Nc2ccc(C(=O)N3CCC(c4ccccn4)C3)s2)c(C)c1 (stereo not shown) [Compound 188] | ≥ 40 |
| COc1ccc(C(=O)Nc2ccc(C(=O)N3CCC(c4ccncc4)C3)s2)c(C)c1 (stereo not shown) [Compound 189] | ≥ 40 |
| COc1ccc(C(=O)Nc2ccc(C(=O)N3CCC(c4ccccn4)C3)o2)c(C)c1 (stereo not shown) [Compound 190] | ≥ 40 |
| COc1ccc(C(=O)Nc2ccc(C(=O)N3CCC(c4ccncc4)C3)o2)c(C)c1 (stereo not shown) [Compound 191] | ≥ 40 |
| COc1ccc(C(=O)Nc2ccc(C(=O)N3CCC(Oc4cnccn4)CC3)o2)c(C)c1 [Compound 192] | ≥ 40 |
| COc1ccc(C(=O)Nc2ccc(C(=O)Nc3ccc(-n4ccnc4)cc3)o2)c(C)c1 [Compound 193] | ≥ 40 |
| COc1ccc(NCc2ccc(C(=O)Nc3ccc(-n4cncn4)cc3)o2)c(C)c1 [Compound 198] | ≥ 40 |
| O=C(Nc1ccc(-n2cncn2)c(F)c1)c1ccc(C(=O)Nc2ccccc2OCc2ccccc2)s1 [Compound 200] | ≥ 40 |
| O=C(Nc1ccc(-n2cncn2)c(F)c1)c1ccc(C(=O)Nc2ccccc2OC2CCCCC2)s1 [Compound 203] | ≥ 40 |
| CN1CCC(N(C)C(=O)c2ccc(C(=O)Nc3ccc(-n4cncn4)c(F)c3)o2)CC1 [Compound 210] | ≥ 40 |
| O=C(Nc1ccc(-n2cncn2)c(F)c1)c1ccc(C(=O)N2CCOCC2)o1 [Compound 211] | ≥ 40 |
| CN(C)CCNC(=O)c1ccc(C(=O)Nc2ccc(-n3cncn3)c(F)c2)o1 [Compound 212] | ≥ 40 |
| CN(C(=O)c1ccc(C(=O)Nc2ccc(-n3cncn3)c(F)c2)o1)C1CCCCC1 [Compound 213] | ≥ 40 |
| CN1CCC(NC(=O)c2ccc(C(=O)Nc3ccc(-n4cncn4)c(F)c3)o2)CC1 [Compound 214] | ≥ 40 |
| CNC(=O)c1ccc(C(=O)Nc2ccc(-n3cncn3)c(F)c2)o1 [Compound 215] | ≥ 40 |
| CN(C)C(=O)c1ccc(C(=O)Nc2ccc(-n3cncn3)c(F)c2)o1 [Compound 216] | ≥ 40 |

The next lines start with the values.

| IC50 [µM] | SMILES |
| --- | --- |
| ≥ 40 | COc1ccc(NC(=O)c2ccc(C(=O)Nc3ccc(Cn4ccnc4)cc3)s2)c(C)c1 [Compound 177] |
| ≥ 40 | COc1ccc(NC(=O)c2ccc(C(=O)Nc3ccc(-n4cncn4)cc3F)s2)c(C)c1 [Compound 180] |
| ≥ 40 | COc1ccc(C(=O)Nc2ccc(C(=O)Nc3ccc(-n4cncn4)cc3)o2)cc1 [Compound 181] |
| ≥ 40 | O=C(Nc1ccc(C(=O)Nc2ccc(-n3cncn3)cc2)o1)c1ccccc1 [Compound 183] |
| ≥ 40 | Cc1ccccc1C(=O)Nc1ccc(C(=O)Nc2ccc(-n3cncn3)cc2)o1 [Compound 184] |
| ≥ 40 | O=C(Nc1ccc(C(=O)Nc2ccc(-n3cncn3)cc2)o1)c1ccncc1 [Compound 185] |
| ≥ 40 | COc1ccc(C(=O)Nc2ccc(C(=O)Nc3ccc(-n4cncn4)cc3)o2)c(C)c1 [Compound 186] |
| ≥ 40 | O=C(Nc1ccc(C(=O)Nc2ccc(-n3cncn3)cc2)s1)c1ccncc1 [Compound 194] |
| ≥ 40 | Cn1nc(-c2cccs2)cc1NC(=O)c1ccc(C(=O)Nc2ccc(-n3cncn3)cc2)s1 [Compound 195] |
| ≥ 40 | Cn1nc(-c2ccc(Cl)cc2)cc1NC(=O)c1ccc(C(=O)Nc2ccc(-n3cncn3)cc2)s1 [Compound 196] |
| ≥ 40 | O=C(Nc1ccc(-n2cncn2)cc1)c1ccc(C(=O)Nc2cc(-c3ccco3)n[nH]2)s1 [Compound 197] |
| ≥ 40 | O=C(Nc1ccc(-n2cncn2)c(F)c1)c1ccc(C(=O)Nc2ccccc2Oc2ccccc2)s1 [Compound 199] |
| ≥ 40 | CCOc1ccccc1NC(=O)c1ccc(C(=O)Nc2ccc(-n3cncn3)c(F)c2)s1 [Compound 201] |
| ≥ 40 | O=C(Nc1ccc(-n2cncn2)c(F)c1)c1ccc(C(=O)Nc2ccccc2OCc2ccncc2)s1 [Compound 202] |
| ≥ 40 | O=C(Nc1ccc(-n2cncn2)c(F)c1)c1ccc(C(=O)Nc2ccccc2COc2ccccc2)s1 [Compound 204] |
| ≥ 40 | O=C(Nc1ccc(-n2cncn2)c(F)c1)c1ccc(C(=O)Nc2ccccc2Oc2cccnc2)s1 [Compound 205] |
| ≥ 40 | COc1ccccc1NC(=O)c1ccc(C(=O)Nc2ccc(-n3cncn3)c(F)c2)s1 [Compound 206] |
| ≥ 40 | O=C(Nc1ccc(-n2cncn2)c(F)c1)c1ccc(C(=O)Nc2ccccc2N2CCOCC2)s1 [Compound 207] |
| ≥ 40 | O=C(Nc1ccc(-n2cncn2)c(F)c1)c1ccc(C(=O)Nc2ccccc2-n2cccn2)s1 [Compound 208] |
| ≥ 40 | CN1CCN(c2ccccc2NC(=O)c2ccc(C(=O)Nc3ccc(-n4cncn4)c(F)c3)s2)CC1 [Compound 209] |
